Data reported in patent publication US20090074815A1, “Immunomodulator Compounds as Vaccine Enhancers” (SCICLONE PHARMACEUTICALS, INC., priority 2005, published 2009).
Several values for one entry are separate records, joined by “and”; a condition that tells them apart may be missing. Equal entries are not always repeated. Where two headings read alike, the source gives them in different places. Marks after values point to notes of the source that are not given here.

Columns and labels:
[1] = system: IL-12R40 production by OvA-stimulated splenocytes; test: OvA-stimulated production of IL-12R40 by splenocytes of OvA-immunized mice; conditions: for activity at 0.0001 mg/kg / activity at 0.001 mg/kg / activity at 0.01 mg/kg: Mus musculus, Splenocyte, po, read-out: Production of IL-12R40 by splenocytes, % (% of control), OvA/FA; for Production of IL-12R40 by splenocytes / Production of IL-12R40 by splenocytes, % (% of control): OvA/FA
Protocol: The OvA was administered subcutaneously to the crest in a volume of 200 μl. Mice were immunized on day 1 with OvA in complete Freund's adjuvant (CFA; Sigma) and on day 15 with the antigen in incomplete Freund's adjuvant (IFA; Sigma). The immune response was analyzed on day 29. Mice were also immunized with 10 μg/mouse of OvA using Alum as an adjuvant.
Thymuses and spleens from mice of each treatment group were pooled, and then minced with scissors. The minced tissues were suspended in sterile PBS to form cell suspensions, filtered through a double gauze layer and centrifuged. Cells were washed twice with PBS, re-suspended in RPMI-1640 (Sigma) with 2.0 mM of L-glutamine, 50 μM of mercaptoethanol, and 10 μg/ml of gentamycin (complete medium); and cell counts were made. (The splenocyte suspension was washed with a 0.86% solution of NH4Cl to pre-lyse erthrocytes.)
Assessment of Mitogen- and Antigen-Induced Production of Cytokines: Thymic cells (1×10^6/well) in complete medium with 2% FCS were stimulated with ConA (0, 1, and 2 μg/ml). Splenocytes (1×10^6/well) in complete medium with 5% FCS were stimulated with ConA (0, 1, and 5 μg/ml) and with OvA (0-100 μg/ml). […] Supernatants from OvA-stimulated cultures were collected after 72 hours. Supernatants from both cultures were frozen, and kept at 20° C. Concentrations of IL-2, IL-4, IL-10, IL-12R40 and IFNγ in the supernatants were determined by solid-phase EIA with EIA Expansion Kits, available from BD Biosciences (formerly Pharmingen), in accordance with the manufacturer's instructions.

HBsAg = format: in vivo, human; conditions: for Antibodies to HBsAg not detected, % / Antibodies to HBsAg not detected, Abs / Protective titer against HBsAg (>10 mMU/mL), % / Protective titer against HBsAg (>10 mMU/mL), Abs: one month after the end of vaccination; for concentration of antibodies to HBsAg in the blood: one month after immunization
[2] = system: M. tuberculosis strain H37Rv; format: in vivo, mice; conditions: for CFUs of BCG per ml of Lung Homogenate, MEAN / CFUs of BCG per ml of Lung Homogenate, MEDIAN / CFUs of BCG per ml of Lung Homogenate, individual mice M1-M5: day 61
[3] = 0.1 μg/kg per os, OvA 100 μg/ml
[4] = 1.0 μg/kg per os, OvA 100 μg/ml
[5] = 10.0 μg/kg per os, OvA 10 μg/ml
[6] = 10.0 μg/kg per os, OvA 25 μg/ml
[7] = 10.0 μg/kg per os, OvA 50 μg/ml
[8] = 10.0 μg/kg per os, OvA 100 μg/ml
[9] = group 3: BCG + 0.01 μg SCV-07 D1-D5
[10] = group 4: BCG + 0.01 μg SCV-07 D1-D30
[11] = group 5: BCG + 0.01 μg SCV-07 D1-5, D7, 11, 14, 18, 21, 25, 28
[12] = group 6: BCG + 0.01 μg SCV-07 D6-D30
[13] = group 7: BCG + 0.20 μg SCV-07 D1-D5
[14] = group 8: BCG + 0.20 μg SCV-07 D1-D30
[15] = group 9: BCG + 0.20 μg SCV-07 D1-5, D7, 11, 14, 18, 21, 25, 28
[16] = group 10: BCG + 0.20 μg SCV-07 D6-D30
[17] = group 11: BCG + 2.0 μg SCV-07 D1-D5
[18] = group 12: BCG + 2.0 μg SCV-07 D1-D30
[19] = group 13: BCG + 2.0 μg SCV-07 D1-5, D7, 11, 14, 18, 21, 25, 28
[20] = group 14: BCG + 2.0 μg SCV-07 D6-D30

## N[C@H](CCC(=O)N[C@@H](Cc1c[nH]c2ccccc12)C(=O)O)C(=O)O [SCV-07, γ-D-glutamyl-L-tryptophan]
[1]; 0.1 μg/kg per os, OvA 0 μg/ml
  activity at 0.0001 mg/kg: 100%
  Production of IL-12R40 by splenocytes: 1307.6 pg/mL
[1]; 0.1 μg/kg per os, OvA 10 μg/ml
  activity at 0.0001 mg/kg: 36.6%
  Production of IL-12R40 by splenocytes: 478.1 pg/mL
[1]; 0.1 μg/kg per os, OvA 25 μg/ml
  activity at 0.0001 mg/kg: 24.3%
  Production of IL-12R40 by splenocytes: 317.4 pg/mL
[1]; 0.1 μg/kg per os, OvA 50 μg/ml
  activity at 0.0001 mg/kg: 20.4%
  Production of IL-12R40 by splenocytes: 267.0 pg/mL
[1]; [3]
  activity at 0.0001 mg/kg: 18.9%
  Production of IL-12R40 by splenocytes: 246.5 pg/mL
[1]; 1.0 μg/kg per os, OvA 0 μg/ml
  activity at 0.001 mg/kg: 100%
  Production of IL-12R40 by splenocytes: 1362.3 pg/mL
[1]; 1.0 μg/kg per os, OvA 10 μg/ml
  activity at 0.001 mg/kg: 26.9%
  Production of IL-12R40 by splenocytes: 366.3 pg/mL
[1]; 1.0 μg/kg per os, OvA 25 μg/ml
  activity at 0.001 mg/kg: 23.8%
  Production of IL-12R40 by splenocytes: 324.5 pg/mL
[1]; 1.0 μg/kg per os, OvA 50 μg/ml
  activity at 0.001 mg/kg: 26.5%
  Production of IL-12R40 by splenocytes: 360.8 pg/mL
[1]; [4]
  activity at 0.001 mg/kg: 25.1%
  Production of IL-12R40 by splenocytes: 342.4 pg/mL
[1]; 10.0 μg/kg per os, OvA 0 μg/ml
  activity at 0.01 mg/kg: 100%
  Production of IL-12R40 by splenocytes: 1455.1 pg/mL
[1]; [5]
  activity at 0.01 mg/kg: 52.9%
  Production of IL-12R40 by splenocytes: 769.3 pg/mL
[1]; [6]
  activity at 0.01 mg/kg: 40.7%
  Production of IL-12R40 by splenocytes: 592 pg/mL
[1]; [7]
  activity at 0.01 mg/kg: 32.4%
  Production of IL-12R40 by splenocytes: 471.9 pg/mL
[1]; [8]
  activity at 0.01 mg/kg: 31.9%
  Production of IL-12R40 by splenocytes: 464.8 pg/mL
[1]; OvA/Alum, per os or i/p, data not shown
  OvA-induced production of IL-12r40 by splenocytes versus control: No significant differences
[1]; 0.1 μg/kg i/p, OvA 0 μg/ml
  Production of IL-12R40 by splenocytes: 1285.7 pg/mL
[1]; 0.1 μg/kg i/p, OvA 10 μg/ml
  Production of IL-12R40 by splenocytes: 492.4 pg/mL
  Production of IL-12R40 by splenocytes, % (% of control): 38.3%
[1]; 0.1 μg/kg i/p, OvA 25 μg/ml
  Production of IL-12R40 by splenocytes: 499.6 pg/mL
  Production of IL-12R40 by splenocytes, % (% of control): 38.9%
[1]; 0.1 μg/kg i/p, OvA 50 μg/ml
  Production of IL-12R40 by splenocytes: 420.8 pg/mL
  Production of IL-12R40 by splenocytes, % (% of control): 32.7%
[1]; 0.1 μg/kg i/p, OvA 100 μg/ml
  Production of IL-12R40 by splenocytes: 522.8 pg/mL
[1]; 1.0 μg/kg i/p, OvA 0 μg/ml
  Production of IL-12R40 by splenocytes: 1524.0 pg/mL
[1]; 1.0 μg/kg i/p, OvA 10 μg/ml
  Production of IL-12R40 by splenocytes: 933.8 pg/mL
  Production of IL-12R40 by splenocytes, % (% of control): 61.3%
[1]; 1.0 μg/kg i/p, OvA 25 μg/ml
  Production of IL-12R40 by splenocytes: 739.7 pg/mL
  Production of IL-12R40 by splenocytes, % (% of control): 48.5%
[1]; 1.0 μg/kg i/p, OvA 50 μg/ml
  Production of IL-12R40 by splenocytes: 630.3 pg/mL
  Production of IL-12R40 by splenocytes, % (% of control): 41.4%
[1]; 1.0 μg/kg i/p, OvA 100 μg/ml
  Production of IL-12R40 by splenocytes: 616.4 pg/mL
  Production of IL-12R40 by splenocytes, % (% of control): 40.4%
HBsAg; Group 2, SCV-07, n = 32
  Antibodies to HBsAg not detected, %: 3.1** %
  Antibodies to HBsAg not detected, Abs: 1
  Protective titer against HBsAg (>10 mMU/mL), %: 96.9%
  Protective titer against HBsAg (>10 mMU/mL), Abs: 31
HBsAg; Group 3, healthy, n = 33
  Antibodies to HBsAg not detected, %: 6.1* %
  Antibodies to HBsAg not detected, Abs: 2
  Protective titer against HBsAg (>10 mMU/mL), %: 93.9%
  Protective titer against HBsAg (>10 mMU/mL), Abs: 31
HBsAg; healthy subjects (Group III)
  concentration of antibodies to HBsAg in the blood: 253.6 MU/L
HBsAg; immunodeficient patients who received SCV-07 at the time of vaccination
  concentration of antibodies to HBsAg in the blood: 263.3 MU/L
[2]; about 8-10 μg/kg
  dose with optimal enhancing effect of SCV-07 for vaccination with BCG: 0.20 µg
[2]; [9]
  CFUs of BCG per ml of Lung Homogenate, MEAN: 5.0 log10 CFU per milliliter
  CFUs of BCG per ml of Lung Homogenate, MEDIAN: 4.9 log10 CFU per milliliter
  CFUs of BCG per ml of Lung Homogenate, individual mice M1-M5: 4.8 log10 CFU per milliliter (2×) and 5.3 log10 CFU per milliliter (2×) and 4.9 log10 CFU per milliliter
[2]; [10]
  CFUs of BCG per ml of Lung Homogenate, MEAN: 4.8 log10 CFU per milliliter
  CFUs of BCG per ml of Lung Homogenate, MEDIAN: 4.9 log10 CFU per milliliter
  CFUs of BCG per ml of Lung Homogenate, individual mice M1-M5: 5.1 log10 CFU per milliliter and 4.8 log10 CFU per milliliter and 5.0 log10 CFU per milliliter and 4.3 log10 CFU per milliliter
[2]; [11]
  CFUs of BCG per ml of Lung Homogenate, MEAN: 4.9 log10 CFU per milliliter
  CFUs of BCG per ml of Lung Homogenate, MEDIAN: 5.0 log10 CFU per milliliter
  CFUs of BCG per ml of Lung Homogenate, individual mice M1-M5: 5.1 log10 CFU per milliliter (2×) and 5.0 log10 CFU per milliliter and 4.6 log10 CFU per milliliter and 4.8 log10 CFU per milliliter
[2]; [12]
  CFUs of BCG per ml of Lung Homogenate, MEAN: 5.5 log10 CFU per milliliter
  CFUs of BCG per ml of Lung Homogenate, MEDIAN: 5.5 log10 CFU per milliliter
  CFUs of BCG per ml of Lung Homogenate, individual mice M1-M5: 5.4 log10 CFU per milliliter and 5.5 log10 CFU per milliliter (2×) and 5.7 log10 CFU per milliliter
[2]; [13]
  CFUs of BCG per ml of Lung Homogenate, MEAN: 4.9 log10 CFU per milliliter
  CFUs of BCG per ml of Lung Homogenate, MEDIAN: 5.0 log10 CFU per milliliter
  CFUs of BCG per ml of Lung Homogenate, individual mice M1-M5: 4.8 log10 CFU per milliliter (2×) and 5.0 log10 CFU per milliliter (2×) and 5.1 log10 CFU per milliliter
[2]; [14]
  CFUs of BCG per ml of Lung Homogenate, MEAN: 4.6 log10 CFU per milliliter
  CFUs of BCG per ml of Lung Homogenate, MEDIAN: 4.6 log10 CFU per milliliter
  CFUs of BCG per ml of Lung Homogenate, individual mice M1-M5: 4.5 log10 CFU per milliliter and 4.7 log10 CFU per milliliter (2×) and 4.6 log10 CFU per milliliter
[2]; [15]
  CFUs of BCG per ml of Lung Homogenate, MEAN: 4.8 log10 CFU per milliliter
  CFUs of BCG per ml of Lung Homogenate, MEDIAN: 4.8 log10 CFU per milliliter
  CFUs of BCG per ml of Lung Homogenate, individual mice M1-M5: 4.6 log10 CFU per milliliter and 4.4 log10 CFU per milliliter and 4.9 log10 CFU per milliliter and 5.1 log10 CFU per milliliter and 4.8 log10 CFU per milliliter
[2]; [16]
  CFUs of BCG per ml of Lung Homogenate, MEAN: 5.3 log10 CFU per milliliter
  CFUs of BCG per ml of Lung Homogenate, MEDIAN: 5.3 log10 CFU per milliliter
  CFUs of BCG per ml of Lung Homogenate, individual mice M1-M5: 5.4 log10 CFU per milliliter and 5.2 log10 CFU per milliliter
[2]; [17]
  CFUs of BCG per ml of Lung Homogenate, MEAN: 5.0 log10 CFU per milliliter
  CFUs of BCG per ml of Lung Homogenate, MEDIAN: 5.1 log10 CFU per milliliter
  CFUs of BCG per ml of Lung Homogenate, individual mice M1-M5: 5.1 log10 CFU per milliliter (3×) and 4.8 log10 CFU per milliliter (2×)
[2]; [18]
  CFUs of BCG per ml of Lung Homogenate, MEAN: 5.0 log10 CFU per milliliter
  CFUs of BCG per ml of Lung Homogenate, MEDIAN: 5.1 log10 CFU per milliliter
  CFUs of BCG per ml of Lung Homogenate, individual mice M1-M5: 5.1 log10 CFU per milliliter and 4.8 log10 CFU per milliliter and 5.3 log10 CFU per milliliter (2×) and 4.6 log10 CFU per milliliter
[2]; [19]
  CFUs of BCG per ml of Lung Homogenate, MEAN: 4.9 log10 CFU per milliliter
  CFUs of BCG per ml of Lung Homogenate, MEDIAN: 4.8 log10 CFU per milliliter
  CFUs of BCG per ml of Lung Homogenate, individual mice M1-M5: 4.8 log10 CFU per milliliter (2×) and 4.7 log10 CFU per milliliter and 5.1 log10 CFU per milliliter and 5.3 log10 CFU per milliliter
[2]; [20]
  CFUs of BCG per ml of Lung Homogenate, MEAN: 5.4 log10 CFU per milliliter
  CFUs of BCG per ml of Lung Homogenate, MEDIAN: 5.4 log10 CFU per milliliter
  CFUs of BCG per ml of Lung Homogenate, individual mice M1-M5: 5.3 log10 CFU per milliliter (2×) and 5.4 log10 CFU per milliliter and 5.5 log10 CFU per milliliter
